In the CheMixHub viscosity set:
Values joined by “and” are separate entries in the source; they are usually repeats but may differ in a detail not shown here. Identical values can stand only once.

Experiment: xn = mol fraction of the nth substance listed

Cc1ccc(O)cc1 + C[N+](C)(C)CCO.[Cl-]
Conditions | viscosity
293.15 K, 101 kPa, x2 = 0.333 | 133.7 mPa·s
298.15 K, 101 kPa, x2 = 0.333 | 102 mPa·s
298.15 K, 101.33 kPa, x1 = 0.7 | 138.7 mPa·s
298.15 K, 101.33 kPa, x1 = 0.8 | 75.19 mPa·s and 55.19 mPa·s and 47.26 mPa·s
298.15 K, 101.33 kPa, x1 = 0.9 | 41.11 mPa·s
303.15 K, 101 kPa, x2 = 0.333 | 75.5 mPa·s
308.15 K, 101 kPa, x2 = 0.333 | 58.57 mPa·s
313.15 K, 101 kPa, x2 = 0.333 | 45.82 mPa·s
318.15 K, 101 kPa, x2 = 0.333 | 36.17 mPa·s
323.15 K, 101 kPa, x2 = 0.333 | 28.83 mPa·s

O=S1(=O)CCCC1 + C1CCOC1
viscosity [mPa·s], 101 kPa
Conditions | 303.15 K | 308.15 K | 313.15 K | 318.15 K | 323.15 K
x2 = 0.268 | 3.74 | 2.9 | 3.41 | 2.93 | 2.68
x2 = 0.541 | 1.53 | 1.46 | 1.34 | 1.26 | 1.18
x2 = 0.772 | 0.77 | 0.74 | 0.72 | 0.7 | 0.68

Cc1ccc(O)cc1 + CCCCN(CCCC)CCCC
298.16 K, 101 kPa
Conditions | viscosity [mPa·s]
x1 = 0.5103 | 5.579
x1 = 0.5404 | 5.375
x1 = 0.5979 | 9.34
x1 = 0.6392 | 17.64
x1 = 0.6996 | 33.29
x1 = 0.7333 | 51.5
x1 = 0.7543 | 67.62
x1 = 0.7729 | 84.91
x1 = 0.7927 | 101.9
x1 = 0.8108 | 118
x1 = 0.8352 | 127.1
x1 = 0.8549 | 122.8
x1 = 0.8734 | 104.8
x1 = 0.893 | 82.05
x1 = 0.9161 | 61.96
x1 = 0.9375 | 42.17
x1 = 0.9497 | 33.73
x2 = 0.005161 | 13.13

Cc1cccc(C)c1 + CCC(C)O
308.15 K, 101 kPa
Conditions | viscosity [mPa·s]
x2 = 0.0658 | 0.532
x2 = 0.1295 | 0.544
x2 = 0.2112 | 0.563
x2 = 0.3085 | 0.592
x2 = 0.3828 | 0.622
x2 = 0.4366 | 0.653
x2 = 0.5058 | 0.696
x2 = 0.6047 | 0.792
x2 = 0.698 | 0.919
x2 = 0.8006 | 1.071
x2 = 0.9493 | 1.724

Cc1cccc(C)c1 + Cc1ccc(C)cc1
viscosity [mPa·s], 101.3 kPa
Conditions | 298.15 K | 303.15 K
x1 = 0.0856 | – | 0.5666
x1 = 0.0857 | 0.6046 | –
x1 = 0.1427 | – | 0.5659
x1 = 0.1428 | 0.6026 | –
x1 = 0.2528 | 0.5998 | 0.5651
x1 = 0.3046 | – | 0.5648
x1 = 0.3922 | 0.5968 | 0.5643
x1 = 0.474 | 0.5955 | 0.5641
x1 = 0.5823 | – | 0.5636
x1 = 0.5824 | 0.5942 | –
x1 = 0.6995 | 0.5935 | 0.5627
x1 = 0.8337 | 0.5928 | –
x1 = 0.8339 | – | 0.5614
x1 = 0.9538 | 0.5899 | 0.5602

Cc1ccc(O)cc1 + Cc1ccccc1
308.15 K, 101 kPa
Conditions | viscosity [mPa·s]
x1 = 0.0324 | 0.5202
x1 = 0.0983 | 0.5823
x1 = 0.2079 | 0.7295
x1 = 0.305 | 0.9088
x1 = 0.417 | 1.201
x1 = 0.58 | 1.867
x1 = 0.6813 | 2.636
x1 = 0.7299 | 3.2
x1 = 0.8385 | 4.646
x1 = 0.8532 | 5.08
x1 = 0.9349 | 6.873

NCCCO + CC(C)CO
293.15 K, 101 kPa
Conditions | viscosity [mPa·s]
x1 = 0.501 | 13.95
x1 = 0.7008 | 21.85

CO/N=C(\C(=O)N[C@@H]1C(=O)N2C(C(=O)O)=C(C[N+]3(C)CCCC3)CS[C@H]12)c1csc(N)n1.Cl.[Cl-] + O
Conditions | viscosity [mPa·s]
293.15 K, 101.33 kPa, x1 = 0.002414 | 1.235

Cc1cccc(C)c1 + CCOC(C)=O
viscosity [mPa·s], 101 kPa
Conditions | 298.15 K | 308.15 K
x2 = 0.048 | 0.568 | 0.515
x2 = 0.1498 | 0.541 | 0.492
x2 = 0.2498 | 0.518 | 0.472
x2 = 0.3493 | 0.498 | 0.454
x2 = 0.4469 | 0.481 | 0.439
x2 = 0.4972 | 0.473 | 0.432
x2 = 0.5494 | 0.466 | 0.425
x2 = 0.6495 | 0.454 | 0.414
x2 = 0.7511 | 0.444 | 0.404
x2 = 0.8509 | 0.436 | 0.396
x2 = 0.9461 | 0.43 | 0.39

CCCCOCCOCCO + CCCO
viscosity [mPa·s], 101 kPa
Conditions | 298.15 K | 308.15 K | 318.15 K
x1 = 0.011 | 1.95 | 1.525 | 1.246
x1 = 0.042 | 2.019 | 1.576 | 1.293
x1 = 0.074 | 2.098 | 1.633 | 1.337
x1 = 0.1191 | 2.202 | 1.711 | 1.409
x1 = 0.1629 | 2.325 | 1.802 | 1.488
x1 = 0.2086 | 2.446 | 1.889 | 1.576
x1 = 0.2587 | 2.587 | 2.024 | 1.669
x1 = 0.3152 | 2.748 | 2.149 | 1.767
x1 = 0.3289 | 2.787 | 2.179 | 1.795
x1 = 0.3796 | 2.959 | 2.283 | 1.89
x1 = 0.4568 | 3.213 | 2.435 | 2.034
x1 = 0.5093 | 3.371 | 2.548 | 2.123
x1 = 0.5833 | 3.615 | 2.714 | 2.263
x1 = 0.6316 | 3.764 | 2.814 | 2.346
x1 = 0.6882 | 3.928 | 2.932 | 2.442
x1 = 0.7604 | 4.153 | 3.085 | 2.564
x1 = 0.8285 | 4.361 | 3.228 | 2.677
x1 = 0.9045 | 4.598 | 3.388 | 2.797
x1 = 0.9511 | 4.734 | 3.481 | 2.875

O=S1(=O)CCCC1 + ClCCCl
viscosity [mPa·s], 100 kPa
Conditions | x1 = 0.0168 | x1 = 0.1062 | x1 = 0.2045 | x1 = 0.3091 | x1 = 0.4077 | x1 = 0.5125 | x1 = 0.6483 | x1 = 0.8007 | x1 = 0.9708
303.15 K | 0.8741 | 1.693 | 2.594 | 3.559 | 4.475 | 5.452 | 6.725 | 8.157 | 9.753
308.15 K | 0.8027 | 1.515 | 2.303 | 3.149 | 3.949 | 4.803 | 5.911 | 7.157 | 8.551
313.15 K | 0.7524 | 1.384 | 2.086 | 2.837 | 3.545 | 4.3 | 5.28 | 6.382 | 7.617

Cc1cccc(C)c1 + CC(C)CO
308.15 K, 101 kPa
Conditions | viscosity [mPa·s]
x2 = 0.066 | 0.543
x2 = 0.1299 | 0.555
x2 = 0.2218 | 0.581
x2 = 0.3376 | 0.635
x2 = 0.4463 | 0.714
x2 = 0.5733 | 0.862
x2 = 0.6333 | 0.954
x2 = 0.7251 | 1.146
x2 = 0.8223 | 1.479
x2 = 0.9039 | 1.794
x2 = 0.9623 | 2.218

Cc1ccc(O)cc1 + CC(=O)c1ccccc1
303.15 K, 101 kPa
Conditions | viscosity [mPa·s]
x2 = 0.1137 | 10.7
x2 = 0.1526 | 10.25
x2 = 0.3364 | 8.205
x2 = 0.426 | 7.246
x2 = 0.4932 | 6.538
x2 = 0.5636 | 5.804
x2 = 0.758 | 3.823
x2 = 0.8099 | 3.31
x2 = 0.9433 | 2.026
